In US10065943B2, “Pyrrolidine derivatives as angiotensin II type 2 antagonists” (NOVARTIS AG, priority 2015, dated 2018):

Biological target: T1, human AT2 receptor (Homo sapiens, UniProt P50052)
T1 construct: membranes prepared in house
T1 sequence (P50052 1-363): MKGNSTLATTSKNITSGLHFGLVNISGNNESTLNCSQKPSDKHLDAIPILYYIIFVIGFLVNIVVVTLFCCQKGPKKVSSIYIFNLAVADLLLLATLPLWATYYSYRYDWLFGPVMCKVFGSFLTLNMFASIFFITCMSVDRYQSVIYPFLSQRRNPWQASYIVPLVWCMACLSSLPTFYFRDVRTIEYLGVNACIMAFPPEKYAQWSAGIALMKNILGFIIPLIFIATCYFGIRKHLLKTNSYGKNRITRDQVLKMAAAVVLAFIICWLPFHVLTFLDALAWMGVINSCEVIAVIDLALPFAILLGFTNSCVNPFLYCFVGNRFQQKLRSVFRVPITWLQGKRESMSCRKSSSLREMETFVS
Assay: AT2 receptor binding ([125I]CGP 42112A displacement, CHO-K1 membranes)
Conditions: [125I]CGP 42112A 0.05 nM, membranes of CHO-K1 cells expressing human AT2 receptor; Ki from IC50 by Cheng-Prussoff equation; read-out: Ki
Description: Reagents were purchased from Sigma-Aldrich, unless otherwise specified. Dialyzed fetal bovine serum (FBS) was from Life Technologies (cat. no. 10073772). Valiscreen® human angiotensin AT2 receptor cell line (cat. no. ES-070-C), [^125I]CGP 42112A (cat. no. NEX324025UC) and MicroScint™ 40 (cat. no. 6013641) were purchased from PerkinElmer. CGP 42112A (cat. no. 2569) and PD 123,319 ditrifluoroacetate (cat. no. 1361) were from Tocris Biosciences.
• 1. Growth medium • EX-CELL® CHO DHFR^− medium • 10% FBS, dialysed • 1 mM sodium pyruvate • 2 mM L-glutamine • 2. Harvesting buffer • PBS • 2 mM EDTA • 3. Suspension buffer • 50 mM Tris-HCl, pH 7.4 • 10 mM EDTA • 4. Resuspension buffer • 50 mM Tris-HCl, pH 7.4 • 0.1 mM EDTA • 0.1% sucrose • 5. Binding assay buffer • 50 mM Tris-HCl, pH 7.4 • 5 mM MgCl2 • 1 mM EDTA • 0.1% gelatin • 6. Wash buffer • 50 mM Tris-HCl, pH 7.4 Procedure for Membrane Preparation • Valiscreen® CHO-K1 cells stably expressing the human AT2 receptor were cultured in growth medium. • Cells were seeded into T-175 flasks and grown to 70-80% confluence. • Medium was removed from confluent flasks and cells were washed with warm PBS. • Cells were harvested by incubating with harvesting buffer for 10 min at 37° C., and then transferred to a centrifuge tube on ice. • Cells were centrifuged at 200 g for 5 min at 4° C. • Cell pellets were homogenised in ice-cold suspension buffer. • Homogenates were centrifuged at 40,000 g for 15 min at 4° C. • Pellets were resuspended in ice-cold resuspension buffer and centrifuged at 40,000 g for 15 min at 4° C. • Final pellets were homogenised in ice-cold resuspension buffer. • Protein concentrations were determined by BCA assay method with BSA as standard. Compound Preparation
Compounds were prepared from 10 mM stock solutions in 100% DMSO. Dilutions were made using electronic multichannel pipettes.
• Compounds dilutions were prepared in 100% DMSO at 100× final assay concentration. • Compounds were diluted in 100% DMSO to the appropriate maximal concentration. • 30 μL compound was added to row A. • 21.6 μL of 100% DMSO was added to rows B-H. • Transfer 10 μL from row A into row B (half log dilution). • Transfer 10 μL from row B into row C (half log dilution). • Transfer 10 μL from row C into row D (half log dilution). • Transfer 10 μL from row D into row E (half log dilution). • Transfer 10 μL from row E into row F (half log dilution). • Transfer 10 μL from row F into row G (half log dilution). • Transfer 10 μL from row G into row H (half log dilution). Working Plate Preparation (96-Well Plate) • Compounds were diluted 10-fold in assay buffer. • 10 μL compound solution from dose plate was transferred to corresponding well of working plate. • 90 μL assay buffer was added to the wells of working plate. • Working solutions contained 10% DMSO in assay buffer (1% DMSO final assay concentration). Controls • Total binding (high control) was determined in the absence of unlabelled ligand. A solution of 10% DMSO in assay buffer was prepared. • Non-specific binding (low control) was determined in the presence of a vast excess (10 μM) of PD 123,319. 1 mM stock solution of PD 123,319 in water was diluted 10-fold with 10% DMSO in assay buffer. Assay Plate Preparation (96-Well Plate)
15 μL compound solution was transferred to duplicate wells of assay plate. 5 compounds were tested per plate. 15 μL control solutions were transferred to columns 1 and 12 of assay plate.

**Q.** O=C(O)[C@@H]1C[C@@H](N2CCCOc3ccc(F)cc32)CN1C(=O)C(c1ccccc1)c1ccccc1 [Compound 25, (2S,4R)-1-(2,2-Diphenylacetyl)-4-(7-fluoro-3,4-dihydrobenzo[b][1,4]oxazepin-5(2H)-yl)pyrrolidine-2-carboxylic acid] was tested. Which Ki did it give?
**A.** Its Ki is 0.0016 µM.

**Q.** For CN(C)S(=O)(=O)NC(=O)[C@@H]1C[C@H](N2CCCCc3cc(F)c(F)cc32)CN1C(=O)C(c1ccccc1)c1ccccc1 [Compound 40, (2S,4S)-4-(7,8-Difluoro-2,3,4,5-tetrahydro-1H-benzo[b]azepin-1-yl)-N—(N,N-dimethylsulfamoyl)-1-(2,2-diphenylacetyl)pyrrolidine-2-carboxamide], which Ki is on record?
**A.** The Ki was 0.0093 µM.

**Q.** With O=C(O)[C@@H]1C[C@H](N2CCCc3ccccc32)CN1C(=O)C(c1ccccc1)c1ccccc1 [Compound 14, (2S,4S)-4-(3,4-Dihydroquinolin-1(2H)-yl)-1-(2,2-diphenylacetyl)pyrrolidine-2-carboxylic acid] as the molecule, how does the Ki read?
**A.** The Ki was 0.0238 µM.

**Q.** O=C(NS(=O)(=O)C1CC1)[C@@H]1C[C@H](N2CCCCc3cc(F)c(F)cc32)CN1C(=O)C(c1ccccc1)c1ccccc1 [Compound 41, (2S,4S)—N-(Cyclopropylsulfonyl)-4-(7,8-difluoro-2,3,4,5-tetrahydro-1H-benzo[b]azepin-1-yl)-1-(2,2-diphenylacetyl)pyrrolidine-2-carboxamide] was tested. Which Ki did it give?
**A.** Its Ki is 0.0151 µM.

**Q.** With CN(C)S(=O)(=O)NC(=O)[C@@H]1C[C@H](N2CCCCc3ccccc32)CN1C(=O)C(c1ccccc1)c1ccccc1 [Compound 44, (2S,4S)—N—(N,N-Dimethylsulfamoyl)-1-(2,2-diphenylacetyl)-4-(2,3,4,5-tetrahydro-1H-benzo[b]azepin-1-yl)pyrrolidine-2-carboxamide] as the molecule, how does the Ki read?
**A.** The Ki was 0.0169 µM.

**Q.** For Cc1ccc2c(c1)N([C@@H]1C[C@@H](C(=O)O)N(C(=O)C(c3ccccc3)c3ccccc3)C1)CCCC2 [Compound 23, (2S,4R)-1-(2,2-Diphenylacetyl)-4-(8-methyl-2,3,4,5-tetrahydro-1H-benzo[b]azepin-1-yl)pyrrolidine-2-carboxylic acid], which Ki is on record?
**A.** The Ki was 0.0159 µM.

**Q.** For NC(=O)[C@@H]1C[C@H](N2CCCCc3ccccc32)CN1C(=O)C(c1ccccc1)c1ccccc1 [Compound 15, (2S,4S)-1-(2,2-Diphenylacetyl)-4-(2,3,4,5-tetrahydro-1H-benzo[b]azepin-1-yl)pyrrolidine-2-carboxamide], which Ki is on record?
**A.** The Ki was 0.0668 µM.

**Q.** For O=C(O)[C@@H]1C[C@H](N2CCCOc3ccccc32)CN1C(=O)C(c1ccccc1)c1ccccc1 [Compound 7, (2S,4S)-4-(3,4-dihydrobenzo[b][1,4]oxazepin-5(2H)-yl)-1-(2,2-diphenylacetyl)pyrrolidine-2-carboxylic acid], which Ki is on record?
**A.** Its Ki is 0.002 µM.

**Q.** With O=C(O)[C@@H]1C[C@H](N2CCCOc3cc(F)c(F)cc32)CN1C(=O)C(c1ccccc1)c1ccccc1 [Compound 21, (2S,4S)-4-(7,8-difluoro-3,4-dihydrobenzo[b][1,4]oxazepin-5(2H)-yl)-1-(2,2-diphenylacetyl)pyrrolidine-2-carboxylic acid] as the molecule, how does the Ki read?
**A.** The Ki was 0.0023 µM.

**Q.** Which Ki does the source give for O=C(O)[C@@H]1C[C@H](N2Cc3ccccc3C2)CN1C(=O)C(c1ccccc1)c1ccccc1 [Compound 20, (2S,4S)-1-(2,2-Diphenylacetyl)-4-(isoindolin-2-yl)pyrrolidine-2-carboxylic acid] here?
**A.** Its Ki is 0.359 µM.

**Q.** Which Ki does the source give for O=C(O)[C@@H]1C[C@H](N2CCc3ccccc3CC2)CN1C(=O)C(c1ccccc1)c1ccccc1 [Compound 45, (2S,4S)-1-(2,2-Diphenylacetyl)-4-(1,2,4,5-tetrahydro-3H-benzo[d]azepin-3-yl)pyrrolidine-2-carboxylic acid] here?
**A.** The Ki was 0.0282 µM.

**Q.** For O=C(O)[C@@H]1C[C@@H](N2CCCOc3ccccc32)CN1C(=O)C(c1ccccc1)c1ccccc1 [Compound 26, (2S,4R)-4-(3,4-Dihydrobenzo[b][1,4]oxazepin-5(2H)-yl)-1-(2,2-diphenylacetyl)pyrrolidine-2-carboxylic acid], which Ki is on record?
**A.** The Ki was 0.0041 µM.
